Assay results as given in patent publication US7888386B2, “3-(phenoxyphenylmethyl)pyrrolidine compounds” (Theravance, Inc., priority 2008, dated 2011).
Read-outs that look alike come from different tables or passages of the source.

Key:
[1] = target: T1, hSERT (Homo sapiens, UniProt P31645); test: hSERT binding assay (Assay 1)
T1 construct: expressed in transfected cells; host or cells: HEK-293 derived cell line, stably transfected; membrane preparation
How it was run: (§1)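 Membranes from HEK-293 cells stably expressing human NET or SERT competed test compound against ^3H-nisoxetine (hNET) or ^3H-citalopram (hSERT). Buffer was 50 mM Tris-HCl pH 7.4, 120 mM NaCl, 5 mM KCl, 0.1% BSA and 400 μM ascorbic acid.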

[2] = target: T2, hNET (Homo sapiens, UniProt P23975); test: hNET binding assay (Assay 1); details: read-out: NET pKi (converted)
T2 construct: expressed in transfected cells; host or cells: HEK-293 derived cell line, stably transfected; membrane preparation
T2 sequence (P23975 whole entry): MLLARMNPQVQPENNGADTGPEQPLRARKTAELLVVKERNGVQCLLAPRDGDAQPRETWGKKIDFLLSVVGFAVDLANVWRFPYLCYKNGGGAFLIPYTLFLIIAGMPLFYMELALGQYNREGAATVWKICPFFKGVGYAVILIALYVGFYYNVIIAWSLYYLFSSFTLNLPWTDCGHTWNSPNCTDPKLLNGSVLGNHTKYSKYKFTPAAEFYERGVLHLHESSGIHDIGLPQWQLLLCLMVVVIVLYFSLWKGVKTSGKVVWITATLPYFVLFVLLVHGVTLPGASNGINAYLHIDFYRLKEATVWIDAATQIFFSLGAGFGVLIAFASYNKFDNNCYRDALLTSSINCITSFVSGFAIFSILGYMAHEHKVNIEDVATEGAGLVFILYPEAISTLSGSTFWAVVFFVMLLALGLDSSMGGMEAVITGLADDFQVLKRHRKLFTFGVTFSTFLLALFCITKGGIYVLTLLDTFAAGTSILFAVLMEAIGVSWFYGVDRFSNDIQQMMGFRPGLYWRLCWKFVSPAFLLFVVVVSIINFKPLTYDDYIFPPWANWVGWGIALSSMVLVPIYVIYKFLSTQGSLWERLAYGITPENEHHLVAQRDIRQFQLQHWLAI
How it was run: as §1

[3] = ratio of SERT Ki to NET Ki (binding)
[4] = ratio of binding Ki at SERT to Ki at NET, the tables list only compounds with a ratio in the range 0.1-100
[5] = hNET binding, the tables list only compounds with NET pKi≧8
[6] = ratio of binding Ki at hSERT to Ki at hNET, rounded off to the nearest tenth
[7] = membranes of HEK-293 cells expressing hNET, 1.0 nM 3H-nisoxetine

T1 sequence (P31645 whole entry): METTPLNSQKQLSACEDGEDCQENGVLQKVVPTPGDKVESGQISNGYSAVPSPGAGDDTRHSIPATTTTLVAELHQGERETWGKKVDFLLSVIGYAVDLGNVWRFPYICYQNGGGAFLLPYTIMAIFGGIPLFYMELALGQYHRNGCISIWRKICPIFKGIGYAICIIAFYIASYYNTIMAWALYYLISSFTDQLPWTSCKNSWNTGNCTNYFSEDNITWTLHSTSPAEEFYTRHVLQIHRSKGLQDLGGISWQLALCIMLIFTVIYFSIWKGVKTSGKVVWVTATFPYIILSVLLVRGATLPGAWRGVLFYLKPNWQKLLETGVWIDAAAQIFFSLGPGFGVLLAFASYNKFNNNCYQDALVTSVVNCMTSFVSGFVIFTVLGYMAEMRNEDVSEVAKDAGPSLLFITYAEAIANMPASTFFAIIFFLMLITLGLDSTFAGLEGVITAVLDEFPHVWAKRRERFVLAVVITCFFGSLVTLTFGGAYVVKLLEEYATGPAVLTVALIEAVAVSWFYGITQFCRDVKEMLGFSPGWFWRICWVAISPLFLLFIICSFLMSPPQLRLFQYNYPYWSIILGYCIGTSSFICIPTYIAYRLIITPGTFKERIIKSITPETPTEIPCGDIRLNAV

Structure (SMILES)	SERT Ki/NET Ki [1, 3]	Ki ([2]; hNET binding) [nM]	SERT Ki/NET Ki [1, 4]	Ki [2, 5] [nM]	other results
Fc1cc(F)cc([C@H](Oc2c(F)ccc(F)c2F)[C@H]2CCNC2)c1 [41-1]	100	0.251	–	–	–
Fc1cc(F)cc(C(Oc2c(F)ccc(F)c2F)C2CCNC2)c1 (stereo not shown) [41-2]	1	2.51	–	–	–
COc1ccc(F)c(F)c1OC(c1cc(F)cc(F)c1)C1CCNC1 (stereo not shown) [41-4]	1	1	–	–	–
Fc1cc(F)cc(C(Oc2c(F)ccc(Cl)c2F)C2CCNC2)c1 (stereo not shown) [41-5]	50	0.2	–	–	–
Fc1cc(F)cc(C(Oc2c(F)ccc(Cl)c2F)C2CCNC2)c1 (stereo not shown) [41-6]	1	0.501	–	–	–
Cc1ccc(F)c(OC(c2cc(F)cc(F)c2)C2CCNC2)c1F (stereo not shown) [41-7]	1.3	1	–	–	–
Cc1ccc(Cl)c(OC(c2cc(F)cc(F)c2)C2CCNC2)c1F (stereo not shown) [41-8]	7.9	0.398	–	–	–
Cc1ccc(Cl)c(O[C@H](c2cc(F)cc(F)c2)[C@@H]2CCNC2)c1F [41-9]	0.8	0.794	–	–	–
Fc1cc(F)cc(C(Oc2c(Cl)ccc(Cl)c2Cl)C2CCNC2)c1 (stereo not shown) [41-11]	0.8	0.398	–	–	–
Cc1ccc(Cl)c(OC(c2cccc(C#N)c2)C2CCNC2)c1Cl (stereo not shown) [41-14]	7.9	0.631	–	–	–
Cc1ccc(Cl)c(OC(c2ccc(C#N)cc2)C2CCNC2)c1Cl (stereo not shown) [41-15]	0.6	1	–	–	–
Cc1ccc(Cl)c(O[C@H](c2cccc(CO)c2)[C@H]2CCNC2)c1Cl [41-17]	5	1	–	–	–
Cc1ccc(Cl)c(OC(c2ccccc2Cl)C2CCNC2)c1Cl (stereo not shown) [41-18]	0.4	1.58	–	–	–
Cc1ccc(Cl)c(OC(c2ccc(Cl)cc2)C2CCNC2)c1Cl (stereo not shown) [41-19]	0.6	1.26	–	–	–
Cc1ccc(Cl)c(OC(c2cc(F)cc(Cl)c2)C2CCNC2)c1Cl (stereo not shown) [41-24]	1	1	–	–	–
Cc1ccc(Cl)c(O[C@@H](c2cc(F)cc(F)c2)[C@H]2CCNC2)c1Cl [41-27]	0.8	0.794	–	–	–
Cc1ccc(F)c(OC(c2cc(F)cc(F)c2)C2CCNC2)c1Cl (stereo not shown) [41-28]	6.3	0.316	–	–	–
Cc1ccc(F)c(OC(c2cc(F)cc(F)c2)C2CCNC2)c1Cl (stereo not shown) [41-29]	0.5	0.251	–	–	–
Fc1cc(F)cc(C(Oc2c(F)ccc(F)c2Cl)C2CCNC2)c1 (stereo not shown) [41-30]	32	0.2	–	–	–
Fc1cc(F)cc([C@@H](Oc2c(F)ccc(F)c2Cl)[C@@H]2CCNC2)c1 [41-31]	0.6	0.251	–	–	–
N#Cc1cccc([C@H](Oc2c(F)ccc(F)c2Cl)[C@H]2CCNC2)c1 [41-32]	40	0.398	–	–	–
N#Cc1cccc([C@@H](Oc2c(F)ccc(F)c2Cl)[C@@H]2CCNC2)c1 [41-33]	0.4	0.794	–	–	–
N#Cc1cccc([C@H](Oc2c(F)ccc(F)c2Cl)[C@@H]2CCNC2)c1 [41-34]	0.8	7.94	–	–	–
NC(=O)c1cccc(C(Oc2c(F)ccc(F)c2Cl)C2CCNC2)c1 (stereo not shown) [41-36]	7.9	1	–	–	–

Structure (SMILES)	SERT Ki/NET Ki [1, 3]	Ki ([2]; hNET binding) [nM]	SERT Ki/NET Ki [1, 4]	Ki [2, 5] [nM]	other results
Fc1cc(F)c(OC(c2ccccc2)C2CCNC2)cc1F (stereo not shown) [42-1]	1.6	7.94	–	–	–
Cc1cc(Cl)c(OC(c2ccccc2)C2CCNC2)cc1F (stereo not shown) [42-4]	0.5	2.51	–	–	–
COc1cc(Cl)c(F)cc1OC(c1ccccc1)C1CCNC1 (stereo not shown) [42-8]	0.4	1.26	–	–	–
Fc1cc(F)cc(C(Oc2cc(F)c(F)cc2F)C2CCNC2)c1 (stereo not shown) [43-1]	32	2	–	–	–
COc1cc(Cl)c(F)cc1OC(c1cc(F)cc(F)c1)C1CCNC1 (stereo not shown) [43-2]	1.3	2	–	–	–
CCc1cc(F)cc(F)c1O[C@@H](c1ccccc1)[C@H]1CCNC1 [44-4]	–	–	0.3	0.631	–
CC(=O)c1cc(F)cc(F)c1O[C@@H](c1ccccc1)[C@H]1CCNC1 [44-6]	–	–	13	1.58	–
Fc1cc(Cl)cc(F)c1OC(c1ccccc1)C1CCNC1 (stereo not shown) [44-8]	–	–	0.1	3.98	–
Fc1cc(Cl)cc(F)c1O[C@@H](c1ccccc1)[C@H]1CCNC1 [44-9]	–	–	0.1	2.51	–
Fc1cc(Cl)c(O[C@@H](c2ccccc2)[C@H]2CCNC2)c(Cl)c1 [44-21]	–	–	0.5	6.31	–
COC(=O)c1cc(F)cc(F)c1O[C@@H](c1ccccc1)[C@H]1CCNC1 [44-28]	–	–	2.5	1	–
Fc1cc(F)cc([C@H](Oc2c(F)cc(F)cc2F)[C@H]2CCNC2)c1 [45-1]	–	–	7.9	3.98	–
NC(=O)c1cccc(C(Oc2c(F)cc(F)cc2F)C2CCNC2)c1 (stereo not shown) [45-5]	–	–	3.2	7.94	–
Fc1cc(F)c(Cl)c(OC(c2ccccc2)C2CCNC2)c1F (stereo not shown) [47-6]	–	–	6.3	0.398	–
Fc1cc(F)c(Cl)c(OC(c2ccccc2)C2CCNC2)c1F (stereo not shown) [47-7]	–	–	0.4	0.501	–
Fc1cc(F)cc(C(Oc2c(Cl)c(F)cc(F)c2Cl)C2CCNC2)c1 (stereo not shown) [48-1]	–	–	2	0.501	–
Fc1cc(F)cc([C@H](Oc2c(Cl)c(F)cc(F)c2Cl)[C@H]2CCNC2)c1 [48-2]	–	–	10	0.398	–
Fc1cc(F)cc([C@@H](Oc2c(Cl)c(F)cc(F)c2Cl)[C@@H]2CCNC2)c1 [48-3]	–	–	2	0.251	–
Fc1cc(F)c(Cl)c(OC(c2ccccc2Cl)C2CCNC2)c1Cl (stereo not shown) [48-4]	–	–	0.2	7.94	–
Fc1c(F)c(F)c(O[C@@H](c2ccccc2)[C@H]2CCNC2)c(F)c1F [49-1]	–	–	2.5	3.98	–
COC(=O)c1c(F)c(F)c(F)c(F)c1OC(c1ccccc1)C1CCNC1 (stereo not shown) [49-8]	–	–	0.4	3.16	–
Brc1ccccc1OC(c1ccccc1)C1CCNC1 (stereo not shown) [Compound 19-7]	–	–	–	–	SERT Ki/NET Ki [1, 6]: 1; Ki [2, 7]: 1 nM
Ic1ccccc1OC(c1ccccc1)C1CCNC1 (stereo not shown) [Compound 19-8]	–	–	–	–	SERT Ki/NET Ki [1, 6]: 0.6; Ki [2, 7]: 1 nM
